Laboratory results taken from ChEMBL document CHEMBL1777778 (Bioorg Med Chem Lett, 2011).
Values after ≈ are worked out from the molar mass of the structure shown.

Columns and labels:
[1] = Clearance in Hanover Wistar rat at 3 mg/kg, iv; type: ADME, organism-based; set-up: dose 3 mg/kg, route intravenous; conditions: in vivo
[2] = Volume of distribution at steady state in Hanover Wistar rat at 3 mg/kg, iv; type: ADME, organism-based; set-up: dose 3 mg/kg, route intravenous; conditions: in vivo, read-out: Vdss
[3] = Oral bioavailability in Hanover Wistar rat at 3 mg/kg; type: ADME, organism-based; conditions: in vivo
[4] = Intrinsic clearance in rat liver microsomes assessed per mg of protein; type: ADME, Microsome
[5] = Aqueous solubility of the compound in phosphate buffer at pH 6.5 by reverse phase HPLC analysis; type: physicochemical
[6] = Permeability across basolateral to apical side in human Caco2 cells at 10 uM after 21 days; type: ADME, cell-based; conditions: Caco-2, read-out: permeability
[7] = AUC in Hanover Wistar rat at 3 mg/kg, po; type: ADME, organism-based; set-up: dose 3 mg/kg, route oral; conditions: plasma
[8] = Permeability across apical to basolateral side of human Caco2 cells at 10 uM after 21 days; type: ADME, cell-based; conditions: Caco-2, read-out: permeability
[9] = Cmax in Hanover Wistar rat at 3 mg/kg, po; type: ADME, organism-based; set-up: dose 3 mg/kg, route oral; conditions: in vivo
[10] = Half life in Hanover Wistar rat at 3 mg/kg, iv; type: ADME, organism-based; set-up: dose 3 mg/kg, route intravenous; conditions: in vivo
[11] = Intrinsic clearance in human liver microsomes assessed per mg of protein; type: ADME, Microsome

clearance [1]: 43.6 mL/min/kg
Vd [2]: 8.1 L/kg
bioavailability [3]: 105%
microsomal CLint [4]: 6.2 µL/min/mg
solubility [5]: 57.2 µg/mL (≈ 149 µM)
Papp B→A at 10 µM [6]: 18.9 ×10⁻⁶ cm/s
AUC [7]: 1220 ng·h/mL
Papp A→B at 10 µM [8]: 3 ×10⁻⁶ cm/s
Cmax [9]: 446 ng/mL
half-life [10]: 3.4 h
microsomal CLint [11]: 0.74 µL/min/mg
SMILES: C[C@H](CS(C)(=O)=O)Nc1n[nH]c2nc(Oc3ccc(F)cc3F)ncc12
